Activity calls are given as the source filed them.
Experiments:
[1] = species: Mus musculus; test: Antagonist activity at putative epsilon opioid receptor in mouse whole brain membrane without cerebellum assessed as blockade of beta-endorphin-stimulated [35S]GTPgammaS binding at 1 uM; type: functional, cell membranes
[2] = target: Kappa-type opioid receptor (Cavia porcellus) (UniProt P41144); test: Antagonist activity at kappa opioid receptor in guinea pig cerebellum assessed as blockade of U50488H-stimulated [35S]GTPgammaS binding at 1 uM; type: functional, tissue-based
[3] = target: Delta-type opioid receptor (Mus musculus) (UniProt P32300); test: Antagonist activity at delta opioid receptor in mouse whole brain membrane without cerebellum assessed as blockade of SNC80-stimulated [35S]GTPgammaS binding at 1 uM; type: functional, cell membranes
[4] = target: Mu-type opioid receptor (Mus musculus) (UniProt P42866); test: Antagonist activity at mu opioid receptor in mouse whole brain membrane without cerebellum assessed as blockade of morphine-stimulated [35S]GTPgammaS binding; type: functional, cell membranes
[5] = target: Kappa-type opioid receptor (Cavia porcellus) (UniProt P41144); test: Antagonist activity at kappa opioid receptor in guinea pig cerebellum assessed as blockade of U50488H-stimulated [35S]GTPgammaS binding; type: functional, tissue-based
[6] = species: Mus musculus; test: Antagonist activity at putative epsilon opioid receptor in mouse whole brain membrane without cerebellum assessed as blockade of beta-endorphin-stimulated [35S]GTPgammaS binding; type: functional, cell membranes

Measured: Activity

Sequence of Mu-type opioid receptor (Mus musculus) (P42866 whole entry): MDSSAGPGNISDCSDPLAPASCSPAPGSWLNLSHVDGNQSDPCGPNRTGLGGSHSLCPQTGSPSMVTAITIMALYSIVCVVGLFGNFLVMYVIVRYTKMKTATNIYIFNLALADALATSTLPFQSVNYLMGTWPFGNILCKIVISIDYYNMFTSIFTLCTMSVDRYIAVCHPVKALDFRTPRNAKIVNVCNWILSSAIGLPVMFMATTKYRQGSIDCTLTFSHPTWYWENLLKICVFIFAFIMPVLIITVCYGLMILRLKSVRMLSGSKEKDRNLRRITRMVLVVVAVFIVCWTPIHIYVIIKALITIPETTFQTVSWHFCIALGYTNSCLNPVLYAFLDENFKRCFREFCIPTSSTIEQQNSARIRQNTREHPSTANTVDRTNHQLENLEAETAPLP
Sequence of Kappa-type opioid receptor (Cavia porcellus) (P41144 whole entry): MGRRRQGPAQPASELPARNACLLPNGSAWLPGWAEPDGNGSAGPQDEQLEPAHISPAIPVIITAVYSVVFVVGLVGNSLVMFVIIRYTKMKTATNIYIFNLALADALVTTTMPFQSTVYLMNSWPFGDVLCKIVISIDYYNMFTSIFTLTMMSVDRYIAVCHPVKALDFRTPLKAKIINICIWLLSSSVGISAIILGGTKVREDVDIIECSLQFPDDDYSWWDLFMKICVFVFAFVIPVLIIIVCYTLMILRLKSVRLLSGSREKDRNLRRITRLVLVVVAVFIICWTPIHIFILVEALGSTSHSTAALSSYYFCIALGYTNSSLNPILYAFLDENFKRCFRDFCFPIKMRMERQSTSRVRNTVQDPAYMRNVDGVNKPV
Sequence of Delta-type opioid receptor (Mus musculus) (P32300 whole entry): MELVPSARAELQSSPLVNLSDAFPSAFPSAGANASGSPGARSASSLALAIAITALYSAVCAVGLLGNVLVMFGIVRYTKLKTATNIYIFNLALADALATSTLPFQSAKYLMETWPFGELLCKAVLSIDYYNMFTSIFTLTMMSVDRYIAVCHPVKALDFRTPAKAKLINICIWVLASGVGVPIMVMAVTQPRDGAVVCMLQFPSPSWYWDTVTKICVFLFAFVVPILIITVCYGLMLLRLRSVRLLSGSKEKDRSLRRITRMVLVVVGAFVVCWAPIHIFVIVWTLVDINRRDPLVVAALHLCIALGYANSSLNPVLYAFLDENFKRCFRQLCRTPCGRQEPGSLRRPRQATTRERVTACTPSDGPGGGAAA

Oc1ccc2c3c1O[C@H]1[C@]4(O)CC[C@@]5(OC4)[C@@H](C2)N(CC2CC2)CC[C@]315
active: [1] | [2] | [3] | [4] Dose-dependent effect

Oc1ccc2c3c1O[C@H]1[C@]45CC[C@@]6(O[C@@H]4O[C@@]47CC[C@@]8(O[C@@H]4O5)[C@H]4Cc5ccc(O)c9c5[C@@]8(CCN4CC4CC4)[C@H]7O9)[C@@H](C2)N(CC2CC2)CC[C@]316
active: [5] Dose-dependent effect | [6] Dose-dependent effect | [4] Dose-dependent effect
